Results published in publication PMC10879502, “Linking ATP and allosteric sites to achieve superadditive binding with bivalent EGFR kinase inhibitors” (Communications Chemistry, 2024).

Experiments:
Test in all cases: KINOMEscan
Assay type in all cases: binding
Settings in all cases: 1 μM
ACVR2B = ACVR2B (Homo sapiens, UniProt Q13705)
ANKK1 = ANKK1 (Homo sapiens, UniProt Q8NFD2)
BRSK2 = biological target: T1, BRSK2 (Homo sapiens, UniProt Q8IWQ3)
T1 construct: purchased Eurofins DiscoverX Corporation (KINOMEscan)

CAMK1B = biological target: T2, CAMK1B (Homo sapiens, UniProt Q6P2M8)
T2 construct: purchased Eurofins DiscoverX Corporation (KINOMEscan)

CDC2L1 = biological target: T3, CDC2L1 (Homo sapiens, UniProt P21127)
T3 construct: purchased Eurofins DiscoverX Corporation (KINOMEscan)

CDK8 = CDK8 (Homo sapiens, UniProt P49336)
CLK2 = CLK2 (Homo sapiens, UniProt P49760)
DAPK2 = biological target: T4, DAPK2 (Homo sapiens, UniProt Q9UIK4)
T4 construct: purchased Eurofins DiscoverX Corporation

DAPK3 = biological target: T5, DAPK3 (Homo sapiens, UniProt O43293)
T5 construct: purchased Eurofins DiscoverX Corporation
T5 sequence (O43293 whole entry): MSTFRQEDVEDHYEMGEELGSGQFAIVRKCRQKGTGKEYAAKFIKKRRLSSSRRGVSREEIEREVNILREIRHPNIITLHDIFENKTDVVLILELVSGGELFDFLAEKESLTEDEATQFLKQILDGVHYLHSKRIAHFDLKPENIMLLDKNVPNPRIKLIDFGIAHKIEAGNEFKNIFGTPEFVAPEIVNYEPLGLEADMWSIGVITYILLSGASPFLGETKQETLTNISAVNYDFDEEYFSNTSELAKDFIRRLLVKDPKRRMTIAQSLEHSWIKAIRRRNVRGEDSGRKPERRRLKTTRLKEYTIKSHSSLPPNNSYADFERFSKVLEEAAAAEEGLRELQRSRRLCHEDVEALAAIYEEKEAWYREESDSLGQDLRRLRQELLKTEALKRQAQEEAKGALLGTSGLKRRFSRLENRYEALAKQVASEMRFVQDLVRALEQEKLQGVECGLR

DDR2 = biological target: T6, DDR2 (Homo sapiens, UniProt Q16832)
T6 construct: purchased Eurofins DiscoverX Corporation
T6 sequence (Q16832 22-855): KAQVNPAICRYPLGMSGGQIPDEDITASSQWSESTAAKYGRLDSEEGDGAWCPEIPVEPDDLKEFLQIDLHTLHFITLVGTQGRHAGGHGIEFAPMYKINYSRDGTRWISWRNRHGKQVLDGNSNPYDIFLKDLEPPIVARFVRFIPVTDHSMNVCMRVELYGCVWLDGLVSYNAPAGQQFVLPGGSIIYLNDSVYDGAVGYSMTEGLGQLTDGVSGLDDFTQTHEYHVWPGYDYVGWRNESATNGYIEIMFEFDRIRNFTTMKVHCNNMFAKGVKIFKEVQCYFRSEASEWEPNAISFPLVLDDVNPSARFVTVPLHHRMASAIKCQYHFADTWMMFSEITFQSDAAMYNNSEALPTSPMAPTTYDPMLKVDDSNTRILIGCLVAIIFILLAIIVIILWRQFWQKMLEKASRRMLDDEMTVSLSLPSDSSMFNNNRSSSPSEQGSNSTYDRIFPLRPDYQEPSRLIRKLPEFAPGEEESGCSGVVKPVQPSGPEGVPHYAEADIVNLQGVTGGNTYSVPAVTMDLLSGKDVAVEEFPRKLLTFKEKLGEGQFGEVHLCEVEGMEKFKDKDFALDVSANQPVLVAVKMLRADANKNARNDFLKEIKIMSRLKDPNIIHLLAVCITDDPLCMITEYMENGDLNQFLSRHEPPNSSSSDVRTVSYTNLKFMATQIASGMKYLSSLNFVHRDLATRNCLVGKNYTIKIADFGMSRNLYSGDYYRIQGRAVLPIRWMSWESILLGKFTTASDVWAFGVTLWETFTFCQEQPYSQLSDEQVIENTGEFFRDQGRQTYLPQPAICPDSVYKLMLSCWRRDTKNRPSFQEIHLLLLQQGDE

EPHA2 = EPHA2 (Homo sapiens, UniProt P29317)
EPHA4 = EPHA4 (Homo sapiens, UniProt P54764)
EPHA7 = EPHA7 (Homo sapiens, UniProt Q15375)
EPHB6 = EPHB6 (Homo sapiens, UniProt O15197)
ERK4 = ERK4 (Homo sapiens, UniProt P31152)
FGFR3 = FGFR3 (Homo sapiens, UniProt P22607)
FYN = biological target: T7, FYN (Homo sapiens, UniProt P06241)
T7 construct: purchased Eurofins DiscoverX Corporation

HIPK2 = biological target: T8, HIPK2 (Homo sapiens, UniProt Q9H2X6)
T8 construct: purchased Eurofins DiscoverX Corporation

INSR = biological target: T9, INSR (Homo sapiens, UniProt P06213)
T9 construct: purchased Eurofins DiscoverX (KINOMEscan)
T9 sequence (P06213 28-1382): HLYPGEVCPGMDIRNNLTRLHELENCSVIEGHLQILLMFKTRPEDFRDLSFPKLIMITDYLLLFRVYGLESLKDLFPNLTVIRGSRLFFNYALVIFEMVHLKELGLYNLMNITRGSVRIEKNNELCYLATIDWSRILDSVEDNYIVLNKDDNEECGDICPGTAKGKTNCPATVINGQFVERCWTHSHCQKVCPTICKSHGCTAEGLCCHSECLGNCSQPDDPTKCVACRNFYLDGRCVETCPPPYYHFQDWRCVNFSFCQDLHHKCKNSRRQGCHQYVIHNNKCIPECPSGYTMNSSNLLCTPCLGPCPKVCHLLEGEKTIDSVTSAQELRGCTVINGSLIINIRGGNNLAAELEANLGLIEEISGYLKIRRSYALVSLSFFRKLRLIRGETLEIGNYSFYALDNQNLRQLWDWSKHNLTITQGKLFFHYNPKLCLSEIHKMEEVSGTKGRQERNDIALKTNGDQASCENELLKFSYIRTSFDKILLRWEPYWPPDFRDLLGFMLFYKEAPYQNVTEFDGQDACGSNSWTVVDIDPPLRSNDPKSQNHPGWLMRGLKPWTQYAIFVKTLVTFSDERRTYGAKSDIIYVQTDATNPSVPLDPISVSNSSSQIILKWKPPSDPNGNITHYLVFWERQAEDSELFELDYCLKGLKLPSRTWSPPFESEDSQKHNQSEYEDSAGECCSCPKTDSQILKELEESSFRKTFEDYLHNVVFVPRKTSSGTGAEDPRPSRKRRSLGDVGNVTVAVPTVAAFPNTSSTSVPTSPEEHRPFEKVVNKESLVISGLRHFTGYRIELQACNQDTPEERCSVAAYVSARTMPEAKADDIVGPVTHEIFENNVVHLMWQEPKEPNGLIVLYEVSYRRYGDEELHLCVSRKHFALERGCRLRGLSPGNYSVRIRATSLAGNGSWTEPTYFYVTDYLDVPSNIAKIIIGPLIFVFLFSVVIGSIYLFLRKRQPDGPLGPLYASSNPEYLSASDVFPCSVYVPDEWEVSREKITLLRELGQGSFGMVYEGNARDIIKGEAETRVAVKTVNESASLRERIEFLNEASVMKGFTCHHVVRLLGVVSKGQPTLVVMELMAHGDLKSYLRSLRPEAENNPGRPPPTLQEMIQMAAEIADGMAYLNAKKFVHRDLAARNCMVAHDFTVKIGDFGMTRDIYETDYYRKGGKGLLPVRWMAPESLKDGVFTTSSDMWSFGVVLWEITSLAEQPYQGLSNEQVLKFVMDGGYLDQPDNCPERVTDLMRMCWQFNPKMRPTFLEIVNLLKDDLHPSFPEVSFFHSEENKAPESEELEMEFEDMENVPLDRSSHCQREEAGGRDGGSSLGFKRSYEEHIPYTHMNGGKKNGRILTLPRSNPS

[1] = biological target: T10, JAK1(JH1domain-catalytic) (Homo sapiens, UniProt P23458)
T10 construct: JAK1(JH1domain-catalytic); purchased Eurofins DiscoverX (KINOMEscan)

MAP3K3 = biological target: T11, MAP3K3 (Homo sapiens, UniProt Q99759)
T11 construct: purchased Eurofins DiscoverX Corporation

MAPKAPK5 = biological target: T12, MAPKAPK5 (Homo sapiens, UniProt Q8IW41)
T12 construct: purchased Eurofins DiscoverX Corporation

MST3 = biological target: T13, MST3 (Homo sapiens, UniProt Q9Y6E0)
T13 construct: purchased Eurofins DiscoverX Corporation

NEK4 = biological target: T14, NEK4 (Homo sapiens, UniProt P51957)
T14 construct: purchased Eurofins DiscoverX Corporation

PAK7 = PAK7 (Homo sapiens, UniProt Q9P286)
PCTK1 = PCTK1 (Homo sapiens, UniProt Q00536)
PCTK3 = PCTK3 (Homo sapiens, UniProt Q07002)
Sequence of PCTK3 (Q07002 whole entry): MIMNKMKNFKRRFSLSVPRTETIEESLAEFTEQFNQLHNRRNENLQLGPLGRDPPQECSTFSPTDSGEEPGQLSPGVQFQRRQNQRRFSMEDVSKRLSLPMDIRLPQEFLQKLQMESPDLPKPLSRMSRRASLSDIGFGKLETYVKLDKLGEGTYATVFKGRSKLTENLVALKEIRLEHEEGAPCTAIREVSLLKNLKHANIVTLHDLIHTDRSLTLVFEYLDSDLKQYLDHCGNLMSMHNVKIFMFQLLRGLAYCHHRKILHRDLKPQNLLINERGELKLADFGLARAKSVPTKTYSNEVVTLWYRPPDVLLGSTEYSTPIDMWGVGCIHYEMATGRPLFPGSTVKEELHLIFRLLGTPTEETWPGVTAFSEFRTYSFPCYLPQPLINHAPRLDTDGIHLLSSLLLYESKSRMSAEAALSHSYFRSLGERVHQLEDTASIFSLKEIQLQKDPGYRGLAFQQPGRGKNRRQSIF

PIK3C2G = PIK3C2G (Homo sapiens, UniProt O75747)
PIK3CA(H1047L) = PIK3CA(H1047L) (Homo sapiens, UniProt P42336, H1047L)
PIK3CA(H1047Y) = PIK3CA(H1047Y) (Homo sapiens, UniProt P42336, H1047Y)
PIM1 = PIM1 (Homo sapiens, UniProt P11309)
PLK1 = PLK1 (Homo sapiens, UniProt P53350)
PLK2 = PLK2 (Homo sapiens, UniProt Q9NYY3)
Sequence of PLK2 (Q9NYY3 whole entry): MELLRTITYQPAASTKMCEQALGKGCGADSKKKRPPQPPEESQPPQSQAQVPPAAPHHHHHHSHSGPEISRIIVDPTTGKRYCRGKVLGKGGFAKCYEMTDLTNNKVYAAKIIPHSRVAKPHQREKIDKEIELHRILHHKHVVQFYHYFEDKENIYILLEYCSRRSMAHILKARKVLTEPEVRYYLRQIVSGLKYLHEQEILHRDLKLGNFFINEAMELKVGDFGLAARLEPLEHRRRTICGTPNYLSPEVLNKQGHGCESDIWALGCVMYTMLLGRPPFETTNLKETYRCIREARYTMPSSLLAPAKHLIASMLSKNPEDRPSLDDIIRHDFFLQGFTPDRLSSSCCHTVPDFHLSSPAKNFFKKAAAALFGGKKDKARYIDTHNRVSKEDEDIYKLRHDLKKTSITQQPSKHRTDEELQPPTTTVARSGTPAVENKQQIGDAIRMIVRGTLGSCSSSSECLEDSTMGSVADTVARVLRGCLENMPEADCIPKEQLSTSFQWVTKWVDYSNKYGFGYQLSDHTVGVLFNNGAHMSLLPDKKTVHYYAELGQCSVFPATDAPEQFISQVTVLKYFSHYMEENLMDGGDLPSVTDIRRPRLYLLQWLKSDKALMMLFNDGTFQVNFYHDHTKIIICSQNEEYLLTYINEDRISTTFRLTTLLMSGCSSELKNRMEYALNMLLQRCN

PRKCH = PRKCH (Homo sapiens, UniProt P24723)
RAF1 = RAF1 (Homo sapiens, UniProt P04049)
SBK1 = SBK1 (Homo sapiens, UniProt Q52WX2)
SRPK1 = SRPK1 (Homo sapiens, UniProt Q96SB4)
TEC = biological target: T15, TEC (Homo sapiens, UniProt P42680)
T15 construct: purchased Eurofins DiscoverX Corporation
T15 sequence (P42680 whole entry): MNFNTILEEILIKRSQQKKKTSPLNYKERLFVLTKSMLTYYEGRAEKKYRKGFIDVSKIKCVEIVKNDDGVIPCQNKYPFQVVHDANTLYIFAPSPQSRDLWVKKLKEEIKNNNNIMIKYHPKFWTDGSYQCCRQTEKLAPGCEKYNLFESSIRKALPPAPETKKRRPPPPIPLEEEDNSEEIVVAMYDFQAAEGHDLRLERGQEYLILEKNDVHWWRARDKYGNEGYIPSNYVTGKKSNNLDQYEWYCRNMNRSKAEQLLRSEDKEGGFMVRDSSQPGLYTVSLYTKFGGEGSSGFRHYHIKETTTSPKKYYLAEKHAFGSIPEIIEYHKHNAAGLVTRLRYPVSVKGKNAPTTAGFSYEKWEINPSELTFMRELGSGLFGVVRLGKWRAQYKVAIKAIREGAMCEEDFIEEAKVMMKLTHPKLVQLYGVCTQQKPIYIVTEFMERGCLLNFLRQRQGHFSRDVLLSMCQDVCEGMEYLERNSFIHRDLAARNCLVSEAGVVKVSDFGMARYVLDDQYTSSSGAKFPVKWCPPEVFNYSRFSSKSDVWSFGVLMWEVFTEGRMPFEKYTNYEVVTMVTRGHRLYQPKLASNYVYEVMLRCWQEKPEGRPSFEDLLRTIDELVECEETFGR

TSSK1B = biological target: T16, TSSK1B (Homo sapiens, UniProt Q9BXA7)
T16 construct: purchased Eurofins DiscoverX Corporation
T16 sequence (Q9BXA7 whole entry): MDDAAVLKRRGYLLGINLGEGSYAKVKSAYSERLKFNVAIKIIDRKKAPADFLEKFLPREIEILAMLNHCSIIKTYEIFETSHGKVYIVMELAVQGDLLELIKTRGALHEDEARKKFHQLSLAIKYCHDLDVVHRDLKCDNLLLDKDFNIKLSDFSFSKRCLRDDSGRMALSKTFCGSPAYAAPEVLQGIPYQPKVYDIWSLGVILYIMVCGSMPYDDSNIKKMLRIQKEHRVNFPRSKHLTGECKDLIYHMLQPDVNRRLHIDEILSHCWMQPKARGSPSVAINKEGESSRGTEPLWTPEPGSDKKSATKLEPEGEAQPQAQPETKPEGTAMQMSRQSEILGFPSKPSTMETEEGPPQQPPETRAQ

TTK = TTK (Homo sapiens, UniProt P33981)
[2] = biological target: TYK2(JH2domain-pseudokinase) (Homo sapiens, UniProt P29597)
TYRO3 = TYRO3 (Homo sapiens, UniProt Q06418)

C=CC(=O)Nc1ccc(OC)c(Nc2cc(-c3[nH]c(CC)nc3-c3cccc(NC(=O)c4cccc5c4NC(=O)c4ccccc4N5)c3)ccn2)c1 [Compound 4]
POC (ACVR2B): 72% of control | POC (ANKK1): 87% of control | POC (BRSK2): 93% of control | POC (CAMK1B): 94% of control | POC (CDC2L1): 100% of control | POC (CDK8): 81% of control | POC (CLK2): 63% of control | POC (DAPK2): 100% of control | POC (DAPK3): 62% of control | POC (DDR2): 100% of control | POC (EPHA2): 100% of control | POC (EPHA4): 95% of control | POC (EPHA7): 100% of control | POC (EPHB6): 100% of control | POC (ERK4): 100% of control | POC (FGFR3): 94% of control | POC (FYN): 64% of control | POC (HIPK2): 100% of control | POC (INSR): 97% of control | POC [1]: 91% of control | POC (MAP3K3): 51% of control | POC (MAPKAPK5): 100% of control | POC (MST3): 73% of control | POC (NEK4): 100% of control | POC (PAK7): 77% of control | POC (PCTK1): 100% of control | POC (PCTK3): 93% of control | POC (PIK3C2G): 50% of control | POC (PIK3CA(H1047L)): 100% of control | POC (PIK3CA(H1047Y)): 66% of control | POC (PIM1): 94% of control | POC (PLK1): 50% of control | POC (PLK2): 100% of control | POC (PRKCH): 69% of control | POC (RAF1): 73% of control | POC (SBK1): 84% of control | POC (SRPK1): 100% of control | POC (TEC): 45% of control | POC (TSSK1B): 95% of control | POC (TTK): 72% of control | POC [2]: 100% of control | POC (TYRO3): 32% of control
